Experimental data: the supplement of paper PMC10307832

What was measured:
Experiment in all cases: relative viability (nuclei count vs DMSO), 5 days (fraction); higher = more cells survive
[1] = compound: CC(C)N(CCCNC(=O)Nc1ccc(C(C)(C)C)cc1)C[C@H]1O[C@@H](n2ccc3c(N)ncnc32)[C@H](O)[C@@H]1O + Cc1cc(Nc2cc(N3CCN(C)CC3)nc(Sc3ccc(NC(=O)C4CC4)cc3)n2)n[nH]1 [Tozasertib] (partner 0.1 µM)
How it was run: (§1)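 Medians of duplicate plates are given as relative viability. That measure is the nuclei count in treated wells divided by the count in vehicle wells. Counts were taken on 4× images of lung cancer cell lines in 1536-well plates, 5 days after pin-tool dosing the day after seeding with one drug alone or a fixed anchor-drug dose plus five library-drug doses (not always all listed) in √10 steps.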

[2] = compound: CC(C)N(CCCNC(=O)Nc1ccc(C(C)(C)C)cc1)C[C@H]1O[C@@H](n2ccc3c(N)ncnc32)[C@H](O)[C@@H]1O + N=C(N)NC(=N)NCCc1ccccc1 [Phenformin] (partner 250 µM)
How it was run: as §1

[3] = compound: CC(C)N(CCCNC(=O)Nc1ccc(C(C)(C)C)cc1)C[C@H]1O[C@@H](n2ccc3c(N)ncnc32)[C@H](O)[C@@H]1O + Cc1nc(NC(=O)N2CCC[C@H]2C(N)=O)sc1-c1ccnc(C(C)(C)C(F)(F)F)c1 [Alpelisib] (partner 2 µM)
How it was run: as §1

[4] = compound: CC(C)N(CCCNC(=O)Nc1ccc(C(C)(C)C)cc1)C[C@H]1O[C@@H](n2ccc3c(N)ncnc32)[C@H](O)[C@@H]1O + CC(=O)c1c(C)c2cnc(Nc3ccc(N4CCNCC4)cn3)nc2n(C2CCCC2)c1=O [Palbociclib] (partner 0.5 µM)
How it was run: as §1

Cell Line	relative viability ([1]; first compound 0.08 µM)	relative viability ([1]; first compound 0.253 µM)	relative viability ([1]; first compound 0.8 µM)	relative viability ([1]; first compound 2.53 µM)	relative viability ([1]; first compound 8 µM)	relative viability ([2]; first compound 0.08 µM)	relative viability ([2]; first compound 0.253 µM)	relative viability ([2]; first compound 0.8 µM)	relative viability ([2]; first compound 2.53 µM)	relative viability ([2]; first compound 8 µM)	relative viability ([3]; first compound 0.08 µM)	relative viability ([3]; first compound 0.253 µM)	relative viability ([3]; first compound 0.8 µM)	relative viability ([3]; first compound 2.53 µM)	relative viability ([3]; first compound 8 µM)	relative viability ([4]; first compound 0.08 µM)	relative viability ([4]; first compound 0.253 µM)	relative viability ([4]; first compound 0.8 µM)	relative viability ([4]; first compound 2.53 µM)	relative viability ([4]; first compound 8 µM)
EKVX	0.449	0.347	0.373	0.434	0.388	0.229	0.241	0.223	0.228	0.202	0.908	0.883	0.827	0.855	0.676	0.418	0.346	0.41	0.433	0.371
EMC-BAC-2	0.287	0.314	0.285	0.275	0.275	0.564	0.581	0.565	0.543	0.449	0.654	0.753	0.722	0.721	0.706	0.507	0.499	0.512	0.502	0.485
EPLC-272H	0.315	0.215	0.287	0.217	0.244	0.286	0.271	0.32	0.296	0.298	0.95	0.912	0.856	1.03	1.03	0.365	0.342	0.366	0.36	0.398
H3255	0.735	0.473	0.466	0.457	0.609	0.375	0.365	0.371	0.416	0.372	0.93	0.711	0.662	0.714	0.665	0.328	0.33	0.308	0.299	0.316
HARA	0.097	0.13	0.109	0.0913	0.0981	0.458	0.413	0.388	0.425	0.363	0.795	0.744	0.763	0.701	0.779	0.249	0.223	0.311	0.208	0.26
HCC-15	0.354	0.542	0.369	0.401	0.337	0.466	0.483	0.431	0.423	0.407	0.79	0.863	0.891	0.93	0.811	0.759	0.709	0.802	0.712	0.724
HCC-44	0.99	1.11	0.869	1.01	1.04	0.142	0.155	0.232	0.219	0.125	0.811	0.785	0.744	0.787	0.806	0.968	1.05	0.845	0.931	0.91
HCC-78	0.371	0.383	0.351	0.366	0.484	0.804	0.611	0.682	0.641	0.717	0.272	0.289	0.323	0.334	0.315	0.391	0.484	0.502	0.458	0.476
HCC-366	0.0971	0.163	0.157	0.0768	0.103	0.625	0.627	0.754	0.588	0.53	0.394	0.442	0.366	0.367	0.41	0.34	0.372	0.41	0.375	0.396
HCC-827	0.423	0.425		0.436	0.412	0.393	0.383		0.417	0.417	0.922	0.938		0.952	0.919	0.22	0.468	0.32	0.477	0.5
HOP-62	0.369	0.375	0.335	0.309	0.367	0.704	0.69	0.638	0.566	0.545	0.997	1.16	0.912	0.971	0.909	0.46	0.37	0.356	0.361	0.371
LC-2-ad	0.475	0.432	0.442	0.485	0.41	0.587	0.546	0.526	0.6	0.565	0.802	0.83	0.992	0.823	0.806	0.496	0.463	0.495	0.51	0.484
LCLC-97TM1	0.21	0.17	0.258	0.248	0.21	0.424	0.487	0.548	0.373	0.43	0.251		0.267	0.174	0.222	0.195	0.247	0.218	0.236	0.252
LCLC-103H	0.603	0.519	0.432	0.516	0.478	0.326	0.342	0.304	0.261	0.304	1.03	0.905	0.907	0.99	0.898	0.488	0.47	0.438	0.482	0.459
LK-2	0.159	0.178	0.204	0.195	0.17	0.433	0.326	0.433	0.562	0.411	0.923	1.02	1.01	0.934	1.02		0.665	0.845	0.775	0.622
LOU-NH91	0.635	0.662	0.314	0.682	0.607	0.685	0.712	0.441	0.65	0.671	0.631	0.679		0.753	0.663	0.538	0.503		0.53	0.611
LU99A	0.279	0.316	0.276	0.237	0.261	0.793	0.679	0.979	0.85	0.787	0.477	0.445	0.54	0.555	0.503	0.399	0.387	0.436	0.427	0.405
LXF-289	0.167	0.199	0.131	0.176	0.174	0.518	0.556	0.541	0.539	0.478	1.01	1.05	1.07	1.09	1.04	0.705	0.591	0.6	0.656	0.652
NCI-H23	0.41	0.378	0.281	0.355	0.546	0.771	0.806	0.791	0.843	0.746	0.687		0.695	0.684	0.668	0.517		0.506	0.48	0.446
NCI-H322M	0.484	0.434	0.493	0.499	0.499	0.795	0.711	0.75	0.749	0.762	0.732	0.775	0.766	0.829	0.829	0.481	0.488	0.494	0.489	0.532
NCI-H358	0.112	0.117	0.119	0.0915	0.112	0.291	0.303	0.383	0.286	0.273	0.78	0.823	0.901	0.87	0.917	0.121	0.127	0.143	0.135	0.132
NCI-H441	0.599	0.66		0.716	0.577	0.813	0.923		0.776	0.824		0.653	0.88	0.677	0.712	0.203	0.186		0.237	0.216
NCI-H460	0.402	0.435	0.346	0.488	0.453	0.493	0.555	0.54	0.485	0.436	0.378	0.582	0.442	0.301	0.396	0.207	0.201	0.139	0.181	0.111
NCI-H520	0.453	0.512		0.416	0.437	0.606	0.342	0.353	0.655	0.618	0.796	0.879	0.758	0.789	0.861	0.237	0.196	0.191	0.226	0.25
NCI-H647	0.261	0.318		0.416	0.267	0.469	0.559		0.478	0.568	1.14		1.08	1.05	1.25	0.35	0.396	0.3	0.406	0.421
NCI-H650	0.689	0.768	0.691	0.731	0.696	0.433	0.456	0.514	0.417	0.411	0.984	1.09	1.21	1.13	0.958	0.349	0.339	0.323	0.319	0.348
NCI-H661	0.365	0.345	0.362	0.35	0.37	0.28	0.27	0.276	0.288	0.305	0.692	0.61	1.03	0.63	0.645	0.395	0.437	0.45	0.423	0.423
